Source: ChEMBL document CHEMBL1201862, “PubChem BioAssay data set” (2004)
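Interpolation was linear, between the two tested concentrations surrounding the appropriate level; five concentrations were tested over 48 hours in 96-well plates. GI50: concentration for 50% inhibition of growth.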 Activity calls are given as the source filed them. Rule as the data show it: active = GI50 up to about 1.1 µM and inactive = higher.

Legend:
Experiment in all cases: NCI anticancer screen, dose series, 48 h
[1] = system: 786-0
[2] = system: A498
[3] = system: A549
[4] = system: ACHN
[5] = system: CAKI-1
[6] = system: CCRF-CEM
[7] = system: COLO 205
[8] = system: DLD-1
[9] = system: DMS-114
[10] = system: DMS-273
[11] = system: EKVX
[12] = system: HCC 2998
[13] = system: HCT-116
[14] = system: HCT-15
[15] = system: HL-60
[16] = system: HOP-18
[17] = system: HOP-62
[18] = system: HOP-92
[19] = system: HT-29
[20] = system: IGROV-1
[21] = system: K562
[22] = system: KM-20L2
[23] = system: KM12
[24] = system: LOX IMVI
[25] = system: LXFL 529
[26] = system: M14
[27] = system: M19-MEL
[28] = system: MOLT-4
[29] = system: Malme-3M
[30] = system: NCI-H226
[31] = system: NCI-H23
[32] = system: NCI-H460
[33] = system: NCI-H522
[34] = system: OVCAR-3
[35] = system: OVCAR-4
[36] = system: OVCAR-5
[37] = system: OVCAR-8
[38] = system: RXF 393
[39] = system: SF-268
[40] = system: SF-295
[41] = system: SF-539
[42] = system: SK-MEL-28
[43] = system: SK-MEL-2
[44] = system: SK-MEL-5
[45] = system: SK-OV-3
[46] = system: SN12C
[47] = system: SNB-19
[48] = system: SNB-75
[49] = system: SNB-78
[50] = system: SR
[51] = system: SW-620
[52] = system: TK-10
[53] = system: U-251
[54] = system: UACC-257
[55] = system: UACC-62
[56] = system: UO-31
[57] = system: XF498
[58] = system: RPMI-8226

SMILES: CC1=C2C(=CC(C)(C)C2O)C(=O)C(C)(O)C12CC2 (stereo unspecified)
- GI50 [1]: 0.00759 µM (active)
- GI50 [2]: 0.0279 µM (active)
- GI50 [3]: 0.0135 µM (active)
- GI50 [4]: 0.00479 µM (active)
- GI50 [5]: 0.00552 µM (active)
- GI50 [6]: 0.00531 µM (active)
- GI50 [7]: 0.0138 µM (active)
- GI50 [8]: 0.00665 µM (active)
- GI50 [9]: 0.00794 µM (active)
- GI50 [10]: 0.00489 µM (active)
- GI50 [11]: 0.0356 µM (active)
- GI50 [12]: 0.00541 µM (active)
- GI50 [13]: 0.00325 µM (active)
- GI50 [14]: 0.00393 µM
- GI50 [15]: 0.00345 µM (active)
- GI50 [16]: 0.0337 µM (active)
- GI50 [17]: 0.0119 µM (active)
- GI50 [18]: 0.0167 µM (active)
- GI50 [19]: 0.0028 µM (active)
- GI50 [20]: 0.0153 µM (active)
- GI50 [21]: 0.00558 µM (active)
- GI50 [22]: 0.00521 µM (active)
- GI50 [23]: 0.0158 µM (active)
- GI50 [24]: 0.00478 µM (active)
- GI50 [25]: 0.0198 µM (active)
- GI50 [26]: 0.0158 µM (active)
- GI50 [27]: 0.0157 µM (active)
- GI50 [28]: 0.00253 µM (active)
- GI50 [29]: 0.012 µM (active)
- GI50 [30]: 0.033 µM (active)
- GI50 [31]: 0.00681 µM (active)
- GI50 [32]: 0.0018 µM (active)
- GI50 [33]: 0.00469 µM (active)
- GI50 [34]: 0.0112 µM (active)
- GI50 [35]: 0.00513 µM (active)
- GI50 [36]: 0.0128 µM (active)
- GI50 [37]: 0.00948 µM (active)
- GI50 [38]: 0.00752 µM (active)
- GI50 [39]: 0.00658 µM (active)
- GI50 [40]: 0.00724 µM (active)
- GI50 [41]: 0.0209 µM (active)
- GI50 [42]: 0.0247 µM (active)
- GI50 [43]: 0.0121 µM (active)
- GI50 [44]: 0.00567 µM (active)
- GI50 [45]: 0.0262 µM (active)
- GI50 [46]: 0.0189 µM (active)
- GI50 [47]: 0.019 µM (active)
- GI50 [48]: 0.0123 µM (active)
- GI50 [49]: 0.00893 µM (active)
- GI50 [50]: 0.00249 µM (active)
- GI50 [51]: 0.00305 µM (active)
- GI50 [52]: 0.0216 µM (active)
- GI50 [53]: 0.0059 µM (active)
- GI50 [54]: 0.014 µM (active)
- GI50 [55]: 0.0116 µM (active)
- GI50 [56]: 0.0127 µM (active)
- GI50 [57]: 0.00906 µM (active)

SMILES: Cc1cc(=O)oc2cc(OCc3nc4ccccc4c(=O)[nH]3)ccc12
- GI50 [1]: > 100 µM (inactive)
- GI50 [2]: > 100 µM (inactive)
- GI50 [3]: > 100 µM (inactive)
- GI50 [4]: > 100 µM (inactive)
- GI50 [5]: > 100 µM (inactive)
- GI50 [6]: > 100 µM (inactive)
- GI50 [7]: > 100 µM (inactive)
- GI50 [8]: > 100 µM (inactive)
- GI50 [9]: > 100 µM (inactive)
- GI50 [10]: > 100 µM (inactive)
- GI50 [11]: > 100 µM (inactive)
- GI50 [12]: > 100 µM (inactive)
- GI50 [13]: > 100 µM (inactive)
- GI50 [14]: > 100 µM
- GI50 [15]: > 100 µM (inactive)
- GI50 [16]: > 100 µM (inactive)
- GI50 [17]: > 100 µM (inactive)
- GI50 [18]: > 100 µM (inactive)
- GI50 [19]: > 100 µM (inactive)
- GI50 [20]: > 100 µM (inactive)
- GI50 [21]: > 100 µM (inactive)
- GI50 [22]: > 100 µM (inactive)
- GI50 [23]: > 100 µM (inactive)
- GI50 [24]: > 100 µM (inactive)
- GI50 [25]: > 100 µM (inactive)
- GI50 [26]: > 100 µM (inactive)
- GI50 [27]: > 100 µM (inactive)
- GI50 [28]: > 100 µM (inactive)
- GI50 [29]: > 100 µM (inactive)
- GI50 [30]: > 100 µM (inactive)
- GI50 [31]: > 100 µM (inactive)
- GI50 [32]: > 100 µM (inactive)
- GI50 [33]: > 100 µM (inactive)
- GI50 [34]: > 100 µM (inactive)
- GI50 [35]: > 100 µM (inactive)
- GI50 [36]: > 100 µM (inactive)
- GI50 [37]: > 100 µM (inactive)
- GI50 [58]: > 100 µM (inactive)
- GI50 [38]: > 100 µM (inactive)
- GI50 [39]: > 100 µM (inactive)
- GI50 [40]: > 100 µM (inactive)
- GI50 [41]: > 100 µM (inactive)
- GI50 [42]: > 100 µM (inactive)
- GI50 [43]: > 100 µM (inactive)
- GI50 [44]: > 100 µM (inactive)
- GI50 [45]: > 100 µM (inactive)
- GI50 [46]: > 100 µM (inactive)
- GI50 [47]: > 100 µM (inactive)
- GI50 [48]: > 100 µM (inactive)
- GI50 [51]: > 100 µM (inactive)
- GI50 [52]: > 100 µM (inactive)
- GI50 [53]: > 100 µM (inactive)
- GI50 [55]: > 100 µM (inactive)
- GI50 [57]: > 100 µM (inactive)
